Consider six compounds from patent US9260397B2, “Salts comprising aryl-alkyl-substituted imidazolium and triazolium cations and the use thereof” (TECHNISCHE UNIVERSITAET DRESDEN, priority 2008, dated 2016).

Data set [1] can be described thus: Thermal stability (decomposition point). Format: physicochemical.
Data set [2] can be described thus: Solubility in ether or THF. Type of data set: physicochemical. Here is the method: To 80 mg 1-mesityl-3-tetradecyl imidazolium tetrafluoroborate (Example 97) 4 ml diethylether or 2 ml tetrahydrofuran are added.

In the case of “1-hexyl-3-mesitylimidazolium bis(trifluoromethylsulfone)imide [Example 72]”, the Decomposition point in data set [1] was 440 °C.
In data set [1], “1-heptyl-3-mesitylimidazolium bis(trifluoromethylsulfone)imide [Example 73]” came in with a Decomposition point of 440 °C.
Still for that read-out and setting: the same measure for “1-mesityl-3-pentylimidazolium bis(trifluoromethylsulfone)imide [Example 71]”: 440 °C.
On to `CCCCCCCCCCCCCC[n+]1ccn(-c2c(C)cc(C)cc2C)c1.F[B-](F)(F)F` [1-mesityl-3-tetradecyl imidazolium tetrafluoroborate], for which the solubility in tetrahydrofuran result in data set [2] (80 mg in 2 ml tetrahydrofuran) was “dissolved easily”. The solubility in diethylether entry in data set [2] (80 mg in 4 ml diethylether) was “not dissolved”.
In turn, “1-mesityl-3-propylimidazolium bis(trifluoromethylsulfone)imide [Example 69]” returned a Decomposition point in data set [1] of 440 °C.
Take “1-butyl-3-mesitylimidazolium bis(trifluoromethylsulfone)imide [Example 70]”: the Decomposition point in data set [1] was determined as 440 °C.
